Assay results taken from patent US6472348B1, “Pyridone derivatives and herbicides” (Kumiai Chemical Industry Co., Ltd., priority 1996, dated 2002).

Key:
[1] = test system: pale smartweed (Po); test: Test Example 3: herbicidal effects by upland field foliage treatment; type: in vivo; set-up: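 grade of growth control; 5 = at least 90%; 4 = 70 to 90%; 3 = 50 to 70%; 2 = 30 to 50%; 1 = 10 to 30%; 0 = under 10%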; conditions: 100 g of the active ingredient per 10 ares, evaluated on the 14th day after treatment
In short: (§1)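 Pot culture: sand, 120 cm^2 surface; seeds sown, soil-covered, greenhouse 2 weeks. Foliage treatment applied at that stage. Herbicidal effect rated by standard scale, day 14 post-treatment.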

[2] = test system: common lambsquarters (Ch); test: as above; type: in vivo; set-up: scale not given here; conditions: 100 g of the active ingredient per 10 ares, evaluated on the 14th day after treatment
In short: as §1

[3] = test system: barnyardgrass (Ec); test: as above; type: in vivo; set-up: scale not given here; conditions: 100 g of the active ingredient per 10 ares, evaluated on the 14th day after treatment
In short: as §1

[4] = test system: rice flatsedge (Ci); test: as above; type: in vivo; set-up: scale not given here; conditions: 100 g of the active ingredient per 10 ares, evaluated on the 14th day after treatment
In short: as §1

[5] = test system: slender amaranth (Am); test: as above; type: in vivo; set-up: scale not given here; conditions: 100 g of the active ingredient per 10 ares, evaluated on the 14th day after treatment
In short: as §1

[6] = test system: Diaitaria ciliaris (Di); test: as above; type: in vivo; set-up: scale not given here; conditions: 100 g of the active ingredient per 10 ares, evaluated on the 14th day after treatment
In short: as §1

[7] = test system: pale smartweed (Po); test: Test Example 2: herbicidal effects by upland field soil treatment; type: in vivo; conditions: 100 g of the active ingredient per 10 ares, 21st day after the application, index 0-5 of Table 47;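 also: grade of growth control; 5 = at least 90%; 4 = 70 to 90%; 3 = 50 to 70%; 2 = 30 to 50%; 1 = 10 to 30%; 0 = under 10%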
Text: (§2) (Test on Herbicidal Effects by Upland Field Soil Treatment)

[8] = test system: common lambsquarters (Ch); test: as above; type: in vivo; conditions: 100 g of the active ingredient per 10 ares, 21st day after the application, index 0-5 of Table 47
Text: as §2

[9] = test system: Digitaria ciliaris (Di); test: as above; type: in vivo; conditions: 100 g of the active ingredient per 10 ares, 21st day after the application, index 0-5 of Table 47;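 also: grade of growth control; 5 = at least 90%; 4 = 70 to 90%; 3 = 50 to 70%; 2 = 30 to 50%; 1 = 10 to 30%; 0 = under 10%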
Text: as §2

[10] = test system: barnyardgrass (Ec); test: as above; type: in vivo; conditions: 100 g of the active ingredient per 10 ares, 21st day after the application, index 0-5 of Table 47
Text: as §2

[11] = test system: rice flatsedge (Ci); test: as above; type: in vivo; conditions: 100 g of the active ingredient per 10 ares, 21st day after the application, index 0-5 of Table 47
Text: as §2

[12] = test system: slender amaranth (Am); test: as above; type: in vivo; conditions: 100 g of the active ingredient per 10 ares, 21st day after the application, index 0-5 of Table 47
Text: as §2

[13] = test system: barnyardgrass (Ec); test: Test Example 1: herbicidal effects by paddy field soil treatment; type: in vivo; conditions: 100 g of the active ingredient per 10 ares, 21st day after the application, index 0-5 of Table 47;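 also: grade of growth control; 5 = at least 90%; 4 = 70 to 90%; 3 = 50 to 70%; 2 = 30 to 50%; 1 = 10 to 30%; 0 = under 10%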
In short: (§3)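 Greenhouse pot test in flooded paddy soil, dosed at 100 g a.i. per 10 ares; effect scored on day 21.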

[14] = test system: bulrush (Sc); test: as above; type: in vivo; conditions: 100 g of the active ingredient per 10 ares, 21st day after the application, index 0-5 of Table 47;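 also: grade of growth control; 5 = at least 90%; 4 = 70 to 90%; 3 = 50 to 70%; 2 = 30 to 50%; 1 = 10 to 30%; 0 = under 10%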
In short: as §3

[15] = test system: monochoria (Mo); test: as above; type: in vivo; conditions: 100 g of the active ingredient per 10 ares, 21st day after the application, index 0-5 of Table 47
In short: as §3

[16] = test system: pale smartweed (Po); test: Test Example 4: crop plant selectivity by upland field soil treatment (cotton), herbicidal effects; type: in vivo; set-up: scale not given here; conditions: dose 6.3 g ai/10 a, evaluated 21st day after application
In short: (§4)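 Sand-filled pots, seeds sown then soil-covered; soil application; greenhouse culture; visual scoring of weed control and cotton injury at day 21 post-application.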

[17] = test system: common lambsquarters (Ch); test: as above; type: in vivo; set-up: scale not given here; conditions: dose 6.3 g ai/10 a, evaluated 21st day after application
In short: as §4

[18] = test system: green foxtail (Se); test: as above; type: in vivo; set-up: scale not given here; conditions: dose 6.3 g ai/10 a, evaluated 21st day after application
In short: as §4

[19] = test system: slender amaranth (Am); test: as above; type: in vivo; set-up: scale not given here; conditions: dose 6.3 g ai/10 a, evaluated 21st day after application
In short: as §4

[20] = test system: China jute (Ab); test: as above; type: in vivo; set-up: scale not given here; conditions: dose 6.3 g ai/10 a, evaluated 21st day after application
In short: as §4

[21] = test system: cotton (Go); test: Test Example 4: crop plant selectivity by upland field soil treatment (cotton), phytotoxicity; type: in vivo; set-up: scale not given here; conditions: dose 6.3 g ai/10 a, evaluated 21st day after application
In short: as §4

[22] = test system: pale smartweed (Po); test: Test Example 5: crop plant selectivity by upland field soil treatment (wheat), herbicidal effects; type: in vivo; set-up: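 grade of growth control; 5 = at least 90%; 4 = 70 to 90%; 3 = 50 to 70%; 2 = 30 to 50%; 1 = 10 to 30%; 0 = under 10%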; conditions: dose 6.3 g ai/10a, 21st day after application
In short: (§5)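 Pre-emergence soil treatment, sand-filled pots, seeds covered with soil; greenhouse culture; visual scoring of weed control and wheat injury at day 21 post-application.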

[23] = test system: common lambsquarters (Ch); test: as above; type: in vivo; set-up: scale not given here; conditions: dose 6.3 g ai/10a, 21st day after application
In short: as §5

[24] = test system: green foxtail (Se); test: as above; type: in vivo; set-up: scale not given here; conditions: dose 6.3 g ai/10a, 21st day after application
In short: as §5

[25] = test system: slender amaranth (Am); test: as above; type: in vivo; set-up: scale not given here; conditions: dose 6.3 g ai/10a, 21st day after application
In short: as §5

[26] = test system: China jute (Ab); test: as above; type: in vivo; set-up: scale not given here; conditions: dose 6.3 g ai/10a, 21st day after application
In short: as §5

[27] = test system: wheat (Tr); test: Test Example 5: crop plant selectivity by upland field soil treatment (wheat), phytotoxicity; type: in vivo; set-up: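 grade of crop injury; 5 = at least 90%; 4 = 70 to 90%; 3 = 50 to 70%; 2 = 30 to 50%; 1 = 10 to 30%; 0 = under 10%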; conditions: dose 6.3 g ai/10a, 21st day after application
In short: as §5

Row | SMILES | melting point [°C] | Herbicidal effects Po [1] | Herbicidal effects Ch [2] | Herbicidal effects Ec [3] | Herbicidal effects Ci [4] | Herbicidal effects Am [5] | Herbicidal effects Di [6] | Herbicidal effects Po [7] | Herbicidal effects Ch [8] | Herbicidal effects Di [9] | Herbicidal effects Ec [10] | Herbicidal effects Ci [11] | Herbicidal effects Am [12] | Herbicidal effects Ec [13] | Herbicidal effects Sc [14] | Herbicidal effects Mo [15] | also measured
1 | Cn1c(C(F)(F)F)ccc(-c2cc(NS(C)(=O)=O)c(Cl)cc2F)c1=O [Compound No. 1-60, 3-(4-chloro-2-fluoro-5-methylsulfonylaminophenyl)-1-methyl-6-trifluoromethyl-2(1H)-pyridone] | 113 to 114 | 5 | 5 | 5 | 5 | 5 | 5 | 5 | 5 | 5 | 5 | 5 | 5 | 5 | 5 | 5 | 
2 | CNS(=O)(=O)c1cc(-c2ccc(C(F)(F)F)n(C)c2=O)c(F)cc1Cl [Compound No. 1-71, 3-(4-chloro-2-fluoro-5-methylsulfamoylphenyl)-1-methyl-6-trifluoromethyl-2(1H)-pyridone] | 150 to 151 | 5 | 5 | 5 | 5 | 5 | 5 | 5 | 5 | 5 | 5 | 5 | 5 | 5 | 5 | 5 | Herbicidal effects Po [16]: 5; Herbicidal effects Ch [17]: 5; Herbicidal effects Se [18]: 5; Herbicidal effects Am [19]: 5; Herbicidal effects Ab [20]: 5; Phytotoxicity Go [21]: 1; Herbicidal effects Po [22]: 5; Herbicidal effects Ch [23]: 5; Herbicidal effects Se [24]: 5; Herbicidal effects Am [25]: 5; Herbicidal effects Ab [26]: 5; Phytotoxicity Tr [27]: 2
3 | C#CCOc1cc(-c2cc(C)c(C(F)(F)F)n(C)c2=O)c(F)cc1Cl [Compound No. 1-76, 3-(4-chloro-2-fluoro-5-propargyloxyphenyl)-1,5-dimethyl-6-trifluoromethyl-2(1H)-pyridone] | 107 to 108 | 5 | 5 | 5 | 5 | 5 | 5 | 5 | 5 | 5 | 5 | 5 | 5 | 5 | 5 | 5 | 
4 | Cn1c(C(F)(F)F)ccc(-c2cc(CBr)c(Cl)cc2F)c1=O [Compound No. 1-82, 3-(4-chloro-2-fluoro-5-bromomethylphenyl)-1-methyl-6-trifluoromethyl-2(1H)-pyridone] | 117 to 118 | 5 | 5 | 4 | 5 | 5 | 5 | 5 | 5 | 5 | 4 | 5 | 5 | 5 | 5 | 5 | 
